Test results from article PMC6642116, “Structural and functional analyses of hepatitis B virus X protein BH3-like domain and Bcl-xL interaction” (Nature Communications, 2019).

How the values were obtained:
HepG2-NTCP cells = assay: Cell viability (CCK8 assay) of HBV-infected HepG2-NTCP cells; format: cell-based; design: Cell viability: unit not given here; settings: CCK8, unrelated control peptide, day 8
Protocol: (§1) Fig. 6 The HBx-aa118–127 peptide, but not ABT-263, inhibits HBV replication and transcription in HepG2.2.15 cells. a HepG2.2.15 cells were treated with 125, 250, 500, and 1000 nM of ABT-263 for 2 days. Cytoplasmic HBV viral particles were isolated and the viral DNA replication intermediates were quantified (Methods). The results represent the fold change of the replicative intermediates in HepG2.2.15 cells from the indicated treatments, compared with those without treatment. b HepG2.2.15 cells were treated with the indicated concentrations of ABT-263 for 2 days. The lysate was analyzed by immunoblotting using antibodies to caspase-3 (CASP3) and GAPDH (glyceraldehyde 3-phosphate dehydrogenase). c, d The HBx-aa113–135, HBx-aa118–127, or the control peptides were delivered into HepG2.2.15 cells using PEP-1 nanoparticles (Methods). The levels of HBV DNA (c) and the levels of HBV S-antigen (HBsAg) expression (d) in culture medium collected from HepG2.2.15 cells were measured (Methods). The results are shown as fold change compared to that of the control peptide. e–g HepG2-NTCP cells were transfected with HBx118–127 peptide with concentration of […], and 50 μg/ml or unrelated control peptide during HBV infection (multiplicity of infection (MOI) = 200), respectively. e HBV e-antigen (HBeAg), f HBV DNA, and g cell viability were measured at day 8 after HBV infection. Data shown represent mean ± SD. Significance is indicated on the top. Not significant (ns): *P < 0.05, **P < 0.01; two-tailed unpaired t tests (n = 3 biologically independent samples). Source data are provided as a Source Data file
HBx-aa118-127 peptide treatment.
obvious cytotoxicity at concentrations between 12.5-200 µg/mL (Fig. 6g). Taken together, […]

HBV in HepG2.2.15 cells = assay: Inhibition of HBV in HepG2.2.15 cells by PEP-1 delivered peptides; format: cell-based; settings: for HBV DNA: HepG2.2.15 culture medium, peptide via PEP-1, 48 h; for HBsAg in culture medium: HepG2.2.15, peptide via PEP-1, 48 h
Protocol: as §1
To evaluate the potential inhibitory effects of peptides on HBV replication and transcription in HepG2.2.15 cells, HepG2.2.15 cells were pre-seeded 24 h before peptides treatment. HBx-aa113–135, HBx-aa118–127, or control peptide was transfected through pep-1 carriers and incubated for additional 48 h without the removal of peptides. The culture media of HepG2.2.15 cells were then harvested for analysis.
The levels of HBsAg, HBeAg, and HBcAg expression were measured by chemiluminescence, using Commercial Assay Kit (Wantai, Beijing, China). Northern blot analysis of HBV RNA, Southern blot analysis of HBV DNA, and real-time PCR quantification of HBV DNA are described in the Supplementary Methods.

SSTTSTGPCKTCTTPAQGTSMFP-K-biotin [Control, equal-length unrelated control biotin-labeled peptide]
Cell viability (HepG2-NTCP cells; replicate 1): 102.557
Cell viability (HepG2-NTCP cells; replicate 2): 97.209
Cell viability (HepG2-NTCP cells; replicate 3): 100.234
HBV DNA (HBV in HepG2.2.15 cells; replicate 1): 0.944 fold-change to control
HBV DNA (HBV in HepG2.2.15 cells; replicate 2): 1.019 fold-change to control
HBV DNA (HBV in HepG2.2.15 cells; replicate 3): 1.037 fold-change to control
HBsAg in culture medium (HBV in HepG2.2.15 cells; replicate 1): 1.097 fold-change to control
HBsAg in culture medium (HBV in HepG2.2.15 cells; replicate 2): 0.872 fold-change to control
HBsAg in culture medium (HBV in HepG2.2.15 cells; replicate 3): 1.030 fold-change to control
